Values of other authors, collected in patent US20250064725A1, “OPHTHALMIC PREPARATION OF TYROSINE KINASE INHIBITOR, AND PREPARATION METHOD THEREFOR AND USE THEREOF” (CHENGDU RUIMU BIOPHARMACEUTICALS CO., LTD., priority 2021, published 2025).

What was measured:
[1] = system: age-related macular degeneration; conditions: oral tablets 50, 100, 200 mg/day
[2] = oral administration of tablets

| Structure (SMILES) | Toxicity outcome of the clinical trial [1] | Visual improvement ([1]; after 6 months) | Incidence rate of diarrhea [2] | Incidence rate of fatigue [2] | Incidence rate of hypertension [2] | Incidence rate of loss of appetite [2] | Incidence rate of nausea [2] |
| --- | --- | --- | --- | --- | --- | --- | --- |
| Cc1[nH]c(/C=C2\C(=O)Nc3ccc(F)cc32)c(C)c1C(=O)N[C@H]1CCN(C(=O)N(C)C)C1 [Example X-82] | suspended due to its toxicity | non-inferior |  |  |  |  |  |
| CNC(=O)c1ccccc1Sc1ccc2c(/C=C/c3ccccn3)n[nH]c2c1 [axitinib] |  |  | 55% | 39% | 40% | 34% | 32% |
| CNC(=O)c1cc(Oc2ccc(NC(=O)Nc3ccc(Cl)c(C(F)(F)F)c3)cc2)ccn1 [sorafenib] |  |  | 53% | 32% | 29% | 29% | 22% |
